In patent US5672603A, “Apoptosis regulating composition” (Otsuka Pharmaceutical Co., Ltd., priority 1991, dated 1997):
Values joined by “and” are separate entries in the source; they are usually repeats but may differ in a detail not shown here. Equal values may be shown once. “Also recorded” adds a separate entry of the source.

Legend:
B16 melanoma cells = test: Effect on experimental model of pulmonary metastasis of B16 melanoma cells; format: in vivo, mouse (C57BL/6 mice); details: for No. of colonies in lungs, Mean: control 86.7; for No. of colonies in lungs, individual mice: 4 days
Experimental: B16 mouse melanoma cells [Koren, S. and Fleischmann, W. R., J. Interferon Research, i, 473-482 (198)], 2×10^6 cells, were suspended in Eagle's MEM medium (Nissui Pharmaceutical Co., Ltd.) supplemented with 10% FBS (Gibco) to which 3 or 10 μg/ml of Compound 1 was previously added or not added. The suspension was cultured in a 75-cm^2 flask (Corning) in an incubator (National Appliance Model 15300) at 37° C. under 5% carbon dioxide for 4 days. Then, the cells were washed with Dulbecco's PBS solution (Nissui pharmaceutical Co., Ltd.), and 0.05% trypsin (Flow Laboratories) was added to detach the cells from the flask. The cells were washed centrifugally (Hitachi 05PR-22, 1200 rpm, 5 minutes) twice and after addition of 0.2% trypan blue (Wako Pure Chemical Industries Ltd.), viable cells were counted using a hemocytometer (No. J7796, Kayagaki Works) and the cells were diluted with Hank's solution (Flow Laboratories)to a concentration of 5×10^6 cells/ml.
The cells obtained as above were transplanted, in a population of 3×10^5 cells each, into groups of 7 C57BL/6 mice (7 weeks old, female, purchased from Charles River Japan, Inc.) through the tail vein. Twelve days later, the mice were killed by cervical dislocation and the number of colonies metastatized to the lungs was determined.

CMK cells = test: Apoptosis-regulating effect: DNA fragmentation in CMK cells (agarose gel electrophoresis); format: cell-based, human; details: 30 μg/ml; 2 or 4 days
Experimental: CMK cells were used to prepare a suspension of 1×10^5 cells/ml in RPMI-1640 medium supplemented with fetal calf serum and Compound 1 was added at a concentration of 30 μg/ml. The mixture was incubated in a culture flask at 37° C. for 2 or 4 days. As a control, the medium to which the solvent alone was added was similarly incubated.
Cells were harvested by centrifugation at 4° C. for 10 minutes at 200×G. The pellet was dissolved in a hypotonic buffer (10 mM Tris-HCl, 1 mM EDTA and 0.2% Triton 100, pH 7.5) and the solution was centrifuged at 4° C. for 10 minutes at 13000×G. The supernatant was collected and allowed to stand in 50% isopropyl alcohol -0.5M NaCl at -20° C. overnight. The resultant precipitate was centrifuged at 4° C. for 10 minutes at 13000×G, the supernatant was discarded, and the sediment was dried. The dry sediment was resuspended in 10 mMTris-HCl-1 mM EDTA (pH 7.4). To the supernatant was added RNase at a final concentration of 0.1 mg/ml and the mixture was incubated at 37° C. for 1 hour.
To a sample corresponding to the cell count of 1×10^6 was added 1/5 volume of a loading buffer containing 15 mM EDTA, 2% SDS, 50% glycerol and 0.05% bromphenol blue, and the mixture was incubated at 65° C. for 10 minutes.
The culture sample thus obtained was subjected to electrophoresis in 1.5% agarose gel at 100 V for 100 minutes. The DNA was stained with ethidium bromide. […]

anti-platelet antibodies = test: Assay of anti-platelet antibodies in autoimmune disease mice; format: in vivo, W/BF1 mice; details: for Anti-platelet antibodies, % positive, Mean ± SE / Anti-platelet antibodies, % positive, individual mice: 20 weeks of age; for Anti-platelet antibodies, % positive, Mean ± SE: untreated 19.6 ± 5.5
Experimental: W/BF1 :(NZW×BXSB)F1 mice were used at the age of 14 weeks (purchased from Kiwa Experimental Animal). Groups of 10 mice were used in each experiment.
Compound 1 (Lot No. 9D87M) was used as suspended in a 0.5% solution of carborymethylcellulose (CMC, Cellogan). Compound 1 was administered to mice by oral garage in doses of 100 and 300 mg/kg body weight/day for 6 weeks from 14 weeks of age to 20 weeks of age according to the 5-day administration and 2-day cessation schedule. As a control, an untreated group was provided. […] Statistic analysis was performed by the generalized Wilcoxon test with respect to the untreated group.
(3) Oyaizu et al. have reported that in W/BF1 mice, thrombocytopenia is associated with the appearance of anti-platelet antibodies.
The platelets collected from Balb/c mice and the plasma collected from W/BF1 mice treated up to the age of 20 weeks were incubated together at room temperature for 30 minutes. The mixture was washed twice and allowed to react with FITC-labeled anti-mouse IgG (Tago, Code No. 6250), and after staining, anti-platelet antibodies were assayed with an FACS analyzer (EPICS-Profile II, Coulter). The negative control was set so that the plasma from Balb/c mice was 98% negative. The positive rate of each sample was determined.

MRL/Mp-1 pr/1 pr mice = test: Therapeutic effect on autoimmune disease in MRL mice; format: in vivo; details: 300 mg/kg oral
Text: Groups of five female MRL/Mp-1 pr/1 pr mice (purchased at 7 weeks of age from Charles River Japan, Inc.) were used at the age of 19 weeks.
Mice of the above strain are known to spontaneously develop autoimmune diseases such as human systemic lupus erythematosus (SLE)-like immune complex glomerulonephritis, lymphoma, vasculitis and polyarthritis (Theofilopolos, A. and Dixon, F. J., Adv. Immunology, 37, 269 (1985); Murphy, E. D., Roths, J. B., Autoimmunity and lymphoproliferation, Elsevier North Holland, N.Y., 207-221 (1978); Taniguchi, Y., Gendai Iryo, 21, 131 (1989); Abe, C.).
Mice in both the Compound 1-treated group and the control group (untreated group) were given a mouse diet (Oriental Yeast) and water.
Compound 1 was used as suspended in 0.5% carboxymethytcellulose (CMC, Dai-ichi Kogyo Seiyaku Co., Ltd.) solution.
Compound 1 was administered by oral garage in a dose of 300 mg/kg body weight daily from the age of 19 weeks to the age of 25 weeks according to the 5-day administration and 2-day cessation schedule (Compound 1-treated group).
Mice in the respective groups were examined for changes in urinary protein, lymphoma diameter, vasculitis of the auricle, and loss of hair.

## COc1ccc(C(=O)N2CCN(c3ccc4c(c3)CCC(=O)N4)CC2)cc1OC [Compound 1, 6-[4-(3,4-Dimethoxybenzoyl)-1-piperazinyl]-3,4-dihydrocarbostyril]
B16 melanoma cells; 3 μg/ml, *P < 0.05
  No. of colonies in lungs, Mean: 10.0 colonies
B16 melanoma cells; 10 μg/ml
  No. of colonies in lungs, Mean: 34.7 colonies
B16 melanoma cells; 3 or 10 μg/ml
  Inhibition of pulmonary metastasis (in words): evident inhibition of pulmonary metastasis
B16 melanoma cells; cells pre-incubated with 3 μg/ml
  No. of colonies in lungs, individual mice: 14 colonies and 7 colonies and 11 colonies and 6 colonies and 8 colonies and 24 colonies and 0 colonies
B16 melanoma cells; cells pre-incubated with 10 μg/ml
  No. of colonies in lungs, individual mice: 17 colonies and 43 colonies (2×) and 65 colonies and 7 colonies and 46 colonies and 22 colonies
CMK cells
  Apoptosis (DNA fragmentation): promotes apoptosis of CMK cells
anti-platelet antibodies; 100 mg/kg/day
  Anti-platelet antibodies, % positive, Mean ± SE: 13.3 ± 2.7% and 13.2±2.7%
anti-platelet antibodies; 100 mg/kg, mouse Nos. 1-10
  Anti-platelet antibodies, % positive, individual mice: 3.7% and 13.5% and 3.1% and 17.3% and 21.5% and 16.8% and 18.2% and 7.8% and 8.5% and 27.1%
anti-platelet antibodies; 300 mg/kg/day
  Anti-platelet antibodies, % positive, Mean ± SE: 10.7 ± 2.2%
anti-platelet antibodies; 300 mg/kg, mouse Nos. 1-4, 6-9
  Anti-platelet antibodies, % positive, individual mice: 2.3% and 11.4% and 14.1% and 6.0% and 16.4% and 12.1% and 4.1% and 19.5%
anti-platelet antibodies; 100 and 300 mg/kg/day
  Inhibition of anti-platelet antibodies (in words): dose-dependent inhibition of anti-platelet antibodies
MRL/Mp-1 pr/1 pr mice; 19 to 25 weeks of age, vs control
  Urinary protein: tendency of inhibition of the increase in urinary protein
MRL/Mp-1 pr/1 pr mice; FIG. 8, vs control
  Loss of hair: improvements in vasculitis and loss of hair
  Vasculitis: improvements in vasculitis
MRL/Mp-1 pr/1 pr mice; control 9.0±0.8 mm
  Lymphoma size, diameter: 7.8±1.3 mm
MRL/Mp-1 pr/1 pr mice; vs control
  Lymphoma (in words): enlargement of lymphoma was slightly inhibited; also recorded: reduction in lymphoma
